Data on seven compounds can be found in ChEMBL document CHEMBL3045222, “Synthesis of novel benzimidazole derivatives: as potent analgesic agent” (2013).

Type in all cases: functional
In assay [1] the test system is Rattus norvegicus. Description: Analgesic activity in Rattus norvegicus (rat) assessed as time taken to withdraw tail in response to heat stress at 50 mg/kg, po after 30 min by tail flick method based analgesiometer analysis (reference value: 5.50 +/-0.43 secs). A general note: In hot-plate and tail-flick tests a longer latency is read as antinociception.
Assay [2] has as its system Rattus norvegicus. Description: Analgesic activity in Rattus norvegicus (rat) assessed as time taken to withdraw tail in response to heat stress at 50 mg/kg, po after 120 min by tail flick method based analgesiometer analysis (reference value: 5.16 +/-0.31 secs).
The test system of assay [3] is Rattus norvegicus. Briefly: Analgesic activity in Rattus norvegicus (rat) assessed as time taken to withdraw tail in response to heat stress at 50 mg/kg, po after 90 min by tail flick method based analgesiometer analysis (reference value: 6.00 +/-0.36 secs).
Assay [4] concerns Rattus norvegicus. Description: Analgesic activity in Rattus norvegicus (rat) assessed as time taken to withdraw tail in response to heat stress at 50 mg/kg, po after 60 min by tail flick method based analgesiometer analysis (reference value: 6.5 +/-0.22 secs).

As for `COc1ccc2nc(-c3c(O)ccc4ccccc34)n(C)c2c1`, the Time in the assay on Rattus norvegicus [1] was determined as 10.66 s; in the assay on Rattus norvegicus [2] it was 6.83 s; in the assay on Rattus norvegicus [3], 8.5 s; in the assay with Rattus norvegicus [4], 10.33 s.

For the compound `CCCCn1c(-c2c(O)ccc3ccccc23)nc2ccc(OC)cc21`, the Time in the assay on Rattus norvegicus [1] is 8.66 s; in the assay with Rattus norvegicus [2] it was 6.66 s; with Rattus norvegicus [3], 7.66 s; in the assay on Rattus norvegicus [4], 9.33 s.

For `CCCCn1c(-c2c(O)ccc3ccccc23)nc2ccccc21`, the Time with Rattus norvegicus [1] was found to be 10.66 s; in the assay on Rattus norvegicus [2], 6.83 s; in the assay on Rattus norvegicus [3], 9.66 s; in the assay on Rattus norvegicus [4], 10.5 s.

Turning to `Cn1c(-c2c(O)ccc3ccccc23)nc2ccccc21`, the Time with Rattus norvegicus [1] worked out at 6.5 s; with Rattus norvegicus [2] it was 5.16 s; in the assay on Rattus norvegicus [3] it was 6 s; in the assay with Rattus norvegicus [4], 7 s.

`CCCCn1c(-c2c(O)ccc3ccccc23)nc2ccc([N+](=O)[O-])cc21`: the Time is 6.66 s in the assay with Rattus norvegicus [1], 4.83 s in the assay on Rattus norvegicus [2], 6 s in the assay on Rattus norvegicus [3] and 6.5 s in the assay on Rattus norvegicus [4].

As for `Cn1c(-c2c(O)ccc3ccccc23)nc2ccc([N+](=O)[O-])cc21`, the Time worked out at 10.5 s in the assay with Rattus norvegicus [1], 7 s in the assay on Rattus norvegicus [2], 6.83 s with Rattus norvegicus [3] and 11.5 s in the assay on Rattus norvegicus [4].

Take `O=C(O)Cc1ccccc1Nc1c(Cl)cccc1Cl` [DICLOFENAC]: the Time in the assay with Rattus norvegicus [1] is recorded as 10.83 s; in the assay on Rattus norvegicus [2], 7 s; in the assay on Rattus norvegicus [3], 10 s; with Rattus norvegicus [4] it was 11.66 s.
